In patent US6930222B2, “In vivo animal model of human leukemia” (The Scripps Research Institute, priority 2000, dated 2005):

Test system: primary T-ALL obtained from patients
Assay: in vitro leukemia colony assay (methylcellulose, IL-2 and PMA)
Assay type: cell-based, human
Conditions: 10 ng/ml
From the text: To characterize the nature of the enhancing activity on leukemia engraftment, colony formation of leukemia clonogenic cells was examined in vitro in the presence of cord blood or cord blood derived mesenchymal stem cell conditioned medium. The in vitro leukemia colony assay is based on the ability of leukemic clonogenic cells to proliferate and form colonies in response to growth factors such as IL-2. These leukemic “progenitor” cells have been implicated in the maintenance and expansion of leukemic blast populations.
On microscopic analysis, there is a wide range of colony sizes in the samples to which conditioned medium was added. The colonies in the cultures were individually picked, pooled for similar sizes of colonies, and the number of leukemia cells counted.
Using this primary leukemia sample, leukemia colony forming assay with the addition of cord blood conditioned medium was performed. […] On day 14, leukemia colonies were individually picked. Approximately 1.4×10^6 cells were recovered, and these cells were pooled for flow cytometric analysis. The vast majority of cells are uniquely CD45^−CD7^+, CD45^−CD34^+, and CD7^+CD34^+. Collectively, the results are consistent with approximately 90% of the harvested cells from in vitro cultures having the surface phenotype CD45^−CD7^+CD34^+, identical to the atypical phenotype of the primary leukemia of this patient. […]

recombinant IL-15: potent immunoregulatory cytokine, also a T-cell growth factor
stimulation of colony formation of primary leukemia: about 80%
